Experimental data taken from ChEMBL document CHEMBL1649229, “Efficacy of high doses of daptomycin versus alternative therapies against experimental foreign-body infection by methicillin-resistant Staphylococcus aureus” (Antimicrob Agents Chemother, 2009).
In brackets after ≈: the same amount, converted by molar mass.

Columns and labels:
Type in all cases: functional
[1] = system: Staphylococcus aureus; assay: Antimicrobial activity against log-phase methicillin-resistant Staphylococcus aureus HUSA 304 by M7-A6 method
[2] = system: Staphylococcus aureus; assay: Bactericidal activity against log-phase methicillin-resistant Staphylococcus aureus HUSA 304 after 24 hrs by time kill analysis in presence of 50 mg/L calcium ions; conditions: HUSA 304, 24 h
[3] = system: Staphylococcus aureus; assay: Bactericidal activity against stationary-phase methicillin-resistant Staphylococcus aureus HUSA 304 after 24 hrs by time kill analysis in presence of 50 mg/L calcium ions; conditions: HUSA 304, 24 h
[4] = system: Staphylococcus aureus; assay: Antimicrobial activity against methicillin-resistant Staphylococcus aureus HUSA 304 infected in Wistar rat assessed as decrease in bacterial load in tissue cage fluid at 35 mg/kg, ip administered every 12 hrs for 7 days measured on day 8 post treatment; conditions: route intraperitoneal
[5] = system: Staphylococcus aureus; assay: Antimicrobial activity against methicillin-resistant Staphylococcus aureus HUSA 304 infected in Wistar rat assessed as decrease in bacterial load in tissue cage fluid at 35 mg/kg, ip administered every 12 hrs for 7 days measured on day 11 post treatment; conditions: route intraperitoneal

Structure (SMILES)	MIC [1]	MBC [2]	MBC [3]	log10cfu [4]	log10cfu [5]
CO[C@H]1/C=C/O[C@@]2(C)Oc3c(C)c(O)c4c(O)c(c(/C=N/N5CCN(C)CC5)c(O)c4c3C2=O)NC(=O)/C(C)=C\C=C\[C@H](C)[C@H](O)[C@@H](C)[C@@H](O)[C@@H](C)[C@H](OC(C)=O)[C@@H]1C [RIFAMPIN]	0.03 µg/mL (≈ 0.0365 µM)	0.5 µg/mL	> 8 µg/mL	1.36	1.1
CN[C@H](CC(C)C)C(=O)N[C@H]1C(=O)N[C@@H](CC(N)=O)C(=O)N[C@H]2C(=O)N[C@H]3C(=O)N[C@H](C(=O)N[C@H](C(=O)O)c4cc(O)cc(O)c4-c4cc3ccc4O)[C@H](O)c3ccc(c(Cl)c3)Oc3cc2cc(c3O[C@@H]2O[C@H](CO)[C@@H](O)[C@H](O)[C@H]2O[C@H]2C[C@](C)(N)[C@H](O)[C@H](C)O2)Oc2ccc(cc2Cl)[C@H]1O [VANCOMYCIN]		4 µg/mL	> 32 µg/mL		
